Test results from US9670512B2, “Methods and compositions for producing fatty alcohols or fatty aldehydes” (REG Life Sciences, LLC, priority 2008, dated 2017).

Experiments:
[1] = biological target: T1, PCC7942_orf1594 protein (acyl-ACP reductase) (Synechococcus elongatus, UniProt Q54765); assay: acyl-ACP or acyl-CoA reductase enzyme assay with purified PCC7942_orf1594 protein; format: biochemical, Synechococcus elongatus PCC7942; conditions: for reduction of acyl substrate to fatty aldehyde by PCC7942_orf1594: GC/MS detection of octadecanal/octadecenal, NADPH and divalent cation required
T1 construct: His-tag (C); made in house; host or cells: E. coli BL21 (DE3)
T1 sequence (Q54765 1-341): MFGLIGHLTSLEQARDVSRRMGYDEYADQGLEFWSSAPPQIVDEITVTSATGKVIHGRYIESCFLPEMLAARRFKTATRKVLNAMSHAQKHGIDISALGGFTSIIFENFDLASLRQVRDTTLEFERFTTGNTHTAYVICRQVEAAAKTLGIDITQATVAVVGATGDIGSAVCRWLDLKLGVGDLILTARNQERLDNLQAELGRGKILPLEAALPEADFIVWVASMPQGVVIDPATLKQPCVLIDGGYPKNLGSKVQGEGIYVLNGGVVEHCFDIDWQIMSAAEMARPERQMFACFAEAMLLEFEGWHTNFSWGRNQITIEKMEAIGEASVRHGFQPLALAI
Method: The genomic DNA encoding S. elongatus […] orf1594 (SEQ ID NO:65) was cloned into the NcoI and XhoI sites of vector pET-28b under the control of the T7 promoter. The resulting PCC7942_orf1594 protein contained a C-terminal His-tag. An E. coli BL21 strain (DE3) (Invitrogen) was transformed with the plasmid and PCC7942_orf1594 protein was expressed and purified as described in Example 22. The protein solution was stored in the following buffer: 50 mM sodium phosphate, pH 7.5, 100 mM NaCl, 1 mM THP, 10% glycerol. Protein concentration was determined using the Bradford assay (Biorad). 2 mg/mL of PCC7942_orf1594 protein was obtained.
To test PCC7942_orf1594 protein for acyl-ACP or acyl-CoA reductase activity, the following enzyme assays were set-up. 100 μL reactions were set-up in 50 mM Tris-HCl buffer at pH 7.5 with the following components at their respective final concentrations: 10 μM of purified PCC7942_orf1594 protein, 0.01-1 mM acyl-CoA or acyl-ACP, 2 mM MgCl2, 0.2-2 mM NADPH. The reactions were incubated for 1 h at 37° C. and where stopped by adding 100 μL ethyl acetate (containing 5 mg/l 1-octadecene as internal standard). Samples were vortexed for 15 min and centrifuged at max speed for 3 min for phase separation. 80 μL of the top layer were transferred into GC glass vials and analyzed by GC/MS as described in Example 26. The amount of aldehyde formed was calculated based on the internal standard.

[2] = biological target: T2, Npun02004178 protein (fatty aldehyde decarbonylase) (Nostoc punctiforme, UniProt B2J1M1); assay: in-vitro fatty aldehyde decarbonylase assay with purified Npun02004178 protein; format: biochemical, Nostoc punctiforme PCC73102; conditions: 200 μM octadecanal, 30 μM Npun02004178, spinach ferredoxin, ferredoxin reductase and NADPH; 37° C., 2 h
T2 construct: His-tag (N); made in house; host or cells: E. coli BL21 (DE3)
T2 sequence (B2J1M1 1-232): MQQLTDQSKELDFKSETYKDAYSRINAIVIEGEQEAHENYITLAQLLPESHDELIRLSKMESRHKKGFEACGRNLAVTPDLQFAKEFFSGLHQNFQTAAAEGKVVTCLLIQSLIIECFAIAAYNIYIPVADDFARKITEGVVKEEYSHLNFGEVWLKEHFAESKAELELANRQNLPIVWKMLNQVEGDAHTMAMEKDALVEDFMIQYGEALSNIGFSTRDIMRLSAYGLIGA
Method: The genomic DNA encoding N. punctiforme PCC73102 Npun02004178 (SEQ ID NO:5) was cloned into the NdeI and XhoI sites of vector pET-15b under the control of the T7 promoter. The resulting Npun02004178 protein contained an N-terminal His-tag. An E. coli BL21 strain (DE3) (Invitrogen) was transformed with the plasmid by routine chemical transformation techniques. Protein expression was carried out by first inoculating a colony of the E. coli strain in 5 mL of LB media supplemented with 100 mg/L of carbenicillin and shaken overnight at 37° C. to produce a starter culture. This starter cultures was used to inoculate 0.5 L of LB media supplemented with 100 mg/L of carbenecillin. […] Protein concentration was determined using the Bradford assay (Biorad). […]
To test Npun02004178 protein for decarbonylation activity, the following enzyme assays were set-up. […] Samples were analyzed by GC/MS using the following parameters: run time: 13.13 min; column: HP-5-MS Part No. 19091S-433E (length of 30 meters; I.D.: 0.25 mm narrowbore; film: 0.25 iM); inject: 1 ii Agilent 6850 inlet; inlet: 300 C splitless; carrier gas: helium; flow: 1.3 mL/min; oven temp: 75° C. hold 5 min, 320 at 40° C./min, 320 hold 2 min; det: Agilent 5975B VL MSD; det. temp: 330° C.; scan: 50-550 M/Z. Heptadecane from Sigma was used as an authentic reference for determining compound retention time and fragmentation pattern. […]

For octadecenoyl-CoA, the “reduction of acyl substrate to fatty aldehyde by PCC7942_orf1594” value (“reduction of acyl substrate” below) [1] was “also able to reduce”.
In the case of `CCCCCCCCCCCCCCCCCC=O` [octadecanal], the “in-vitro decarbonylation to heptadecane” value [2] is reported as “in-vitro conversion of octadecanal to heptadecane was observed”.
In the case of `CCCCCCCCCCCCCCCCCC(=O)SCCNC(=O)CCNC(=O)[C@H](O)C(C)(C)COP(=O)(O)OP(=O)(O)OC[C@H]1O[C@@H](n2cnc3c(N)ncnc32)[C@H](O)[C@@H]1OP(=O)(O)O` [octadecanoyl-CoA], the “reduction of acyl substrate” value [1] is reported as “able to reduce octadecanoyl-CoA to octadecanal”.
In the case of octadecenoyl-ACP, the “reduction of acyl substrate” value [1] is reported as “also able to reduce”.
For `NC(=O)C1=CN([C@@H]2O[C@H](COP(=O)(O)OP(=O)(O)OC[C@H]3O[C@@H](n4cnc5c(N)ncnc54)[C@H](O)[C@@H]3O)[C@@H](O)[C@H]2O)C=CC1` [NADH, reference compound], the “support of reductase activity as electron donor” value ([1]; octadecanoyl-CoA as substrate, Mg2+) was “did not support reductase activity”.
With `NC(=O)C1=CN([C@@H]2O[C@H](COP(=O)(O)OP(=O)(O)OC[C@H]3O[C@@H](n4cnc5c(N)ncnc54)[C@H](OP(=O)(O)O)[C@@H]3O)[C@@H](O)[C@H]2O)C=CC1` [NADPH, reference compound] the Km ([1]; in the presence of 0.5 mM octadecanoyl-CoA, read-out: Km value for NADPH) was 400 ± 80 µM.
